Molecules are shown by their SMILES. pIC50: −log10 of the molar value.

One assay deals with Nrf2. Briefly: Nrf2 antagonism assay: ARE luciferase reporter in KYSE-70 cells. The settings on record: Homo sapiens, KYSE-70, KYSE-70 cells, positive Imax corresponds to Nrf2 antagonism, read-out: KYSE70 Cellular ARE Luciferase Imax (%). Format: cell-based. The procedure, abridged: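 Dose-response curves give IC50 and Imax, with positive Imax read as Nrf2 antagonism, i.e. reduced luciferase signal. Reporter cells are Nrf2-high KYSE-70 (Nrf2 W24C mutant) bearing ARE-controlled luciferase. Antagonists are proposed to act at KEAP1 C151, speeding Nrf2 degradation.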

In a further assay the target is T1, KEAP1 C151 (Homo sapiens, UniProt Q14145).
T1 construct: treating 500 μg of cell lysate generated from MDA-MB-468 breast cancer cells with DMSO or compound; endogenous in cells; host or cells: MDA-MB-468 breast cancer cell lysate
T1 sequence (Q14145 whole entry): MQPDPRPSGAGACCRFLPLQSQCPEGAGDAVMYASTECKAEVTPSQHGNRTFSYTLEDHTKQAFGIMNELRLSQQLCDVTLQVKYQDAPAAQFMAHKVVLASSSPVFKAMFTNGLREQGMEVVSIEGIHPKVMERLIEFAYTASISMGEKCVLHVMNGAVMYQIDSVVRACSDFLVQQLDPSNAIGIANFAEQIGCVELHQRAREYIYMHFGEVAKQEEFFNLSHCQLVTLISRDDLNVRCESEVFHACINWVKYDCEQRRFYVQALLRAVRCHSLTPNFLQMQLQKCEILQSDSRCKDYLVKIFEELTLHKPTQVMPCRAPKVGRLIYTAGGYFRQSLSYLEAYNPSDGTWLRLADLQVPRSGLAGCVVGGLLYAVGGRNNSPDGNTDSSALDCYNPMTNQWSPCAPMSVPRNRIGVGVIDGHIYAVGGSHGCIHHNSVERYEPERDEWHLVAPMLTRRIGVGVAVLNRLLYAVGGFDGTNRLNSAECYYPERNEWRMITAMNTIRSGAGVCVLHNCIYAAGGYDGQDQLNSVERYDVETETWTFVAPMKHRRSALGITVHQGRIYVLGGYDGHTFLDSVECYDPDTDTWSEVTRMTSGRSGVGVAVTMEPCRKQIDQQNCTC
Briefly: Nrf2 TMT measurement: in vitro TE50 for KEAP1 C151 (IA-DTB competition, targeted TMT mass spectrometry) in MDA-MB-468 cell lysate. In kind it is binding. The following applies: in vitro target engagement of KEAP1 C151, targeted TMT, read-out: KEAP1_C151 TE50. In a few lines: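 Occupancy of KEAP1 C151 measured as loss of IA-DTB labeling (200 μM, 1 h, room temperature) after 1 h compound pre-treatment of MDA-MB-468 cell lysate.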

Consider `C=CC(=O)N1CC2(CC2)S(=O)(=O)CC1c1cc(Cl)cc(-c2nccc(N)n2)c1` (single isomer, unassigned) [Compound 249, 1-(6-(3-(4-aminopyrimidin-2-yl)-5-chlorophenyl)-4,4-dioxido-4-thin-7-azaspiro[2.5]octan-7-yl)prop-2-en-1-one], for which the Emax in the assay on Nrf2 stood at 89%. Besides, the pIC50 on KEAP1 C151 is 8.28.

For `C=CC(=O)N1CCOC[C@H]1c1cc(Cl)cc(-c2cncc(N)n2)c1` (single isomer, unassigned) [Compound 250], in the assay with Nrf2, the Emax is 92%. Also, at KEAP1 C151, the pIC50 is 7.44.

With `C=CC(=O)N1CCOC[C@H]1c1cc(Cl)cc(-c2cnc(N)cn2)c1` (single isomer, unassigned) [Compound 251], in the assay with Nrf2, the Emax stood at 93%. Also, the pIC50 on KEAP1 C151 is 7.77.

Consider `C=CC(=O)N1CCOC[C@H]1c1cc(Cl)cc(-c2ncc(N)c(OC)n2)c1` (single isomer, unassigned) [Compound 254], for which, in the assay on Nrf2, the Emax worked out at 92%. For the same compound, the pIC50 on KEAP1 C151 is 7.07.

As to `C=CC(=O)N1CCOC[C@H]1c1cc(Cl)cc(-c2cnc(N)c(OC)n2)c1` (single isomer, unassigned) [Compound 255], in the assay with Nrf2, the Emax was determined as 93%. For the same compound, the pIC50 at KEAP1 C151 was 7.30.

With `C=CC(=O)N1CCOC[C@H]1c1cc(Cl)cc(-c2nccc(NC(C)=O)n2)c1` (single isomer, unassigned) [Compound 256], the Emax in the assay with Nrf2 stood at 63%. The pIC50 at KEAP1 C151 is 7.07.

For `C=CC(=O)N1CCOC[C@H]1c1cc(Cl)cc(-c2cnc(N)c(N)n2)c1` (single isomer, unassigned) [Compound 258], the Emax in the assay with Nrf2 was determined as 93%. For the same compound, the pIC50 on KEAP1 C151 is 7.80.

`C=CC(=O)N1CCOC[C@H]1c1cc(Cl)cc(-c2cnc(OC)c(N)n2)c1` (single isomer, unassigned) [Compound 259]: the Emax with Nrf2 is 93%. Also, the pIC50 on KEAP1 C151 was 6.85.

In the case of `C=CC(=O)N1CCOC[C@H]1c1cc(Cl)cc(-c2ncc(F)c(N)n2)c1` (single isomer, unassigned) [Compound 263], the Emax in the assay on Nrf2 is 93%. For the same compound, the pIC50 on KEAP1 C151 was 7.72.

With `C=CC(=O)N1CC[C@@](C)(O)C[C@@H]1c1cc(Cl)cc(-c2ncc(N)cn2)c1` (single isomer, unassigned) [Compound 264], the Emax with Nrf2 turned out to be 86%. Moreover, the pIC50 on KEAP1 C151 is 6.80.

For `C=CC(=O)N1CC[C@](C)(O)C[C@H]1c1cc(Cl)cc(-c2ncc(N)cn2)c1` (single isomer, unassigned) [Compound 265], the Emax in the assay on Nrf2 was 51%. Besides, at KEAP1 C151, the pIC50 is 4.95.

`C=CC(=O)N1CC[C@](C)(O)C[C@@H]1c1cc(Cl)cc(-c2ncc(N)cn2)c1` (single isomer, unassigned) [Compound 266]: the Emax in the assay on Nrf2 is 90%. Also, the pIC50 at KEAP1 C151 is 6.49.

`C=CC(=O)N1CC2(CC2)N(C(=O)C2CC2)CC1c1cc(Cl)cc(-c2ncc(N)cn2)c1` (single isomer, unassigned) [Compound 267]: the Emax with Nrf2 was 94%. For the same compound, the pIC50 on KEAP1 C151 is 8.00.

For the compound `C=CC(=O)N1CCOC[C@H]1c1cc(Cl)cc(-c2nc(Cl)ncc2N)c1` (single isomer, unassigned) [Compound 268], in the assay on Nrf2, the Emax is 53%. The pIC50 at KEAP1 C151 was 6.31.

Regarding `C=CC(=O)N1CCOC[C@H]1c1cc(Cl)cc(-c2c[nH]nn2)c1` (single isomer, unassigned) [Compound 269], the Emax in the assay with Nrf2 worked out at 72%. The pIC50 at KEAP1 C151 is 6.02.

In the case of `C=CC(=O)N1CCOC[C@H]1c1cc(Cl)cc(-c2cc(N)nc(Cl)n2)c1` (single isomer, unassigned) [Compound 271], the Emax with Nrf2 came out at 93%. Besides, the pIC50 at KEAP1 C151 is 7.23.

Consider `C=CC(=O)N1CCOC[C@H]1c1cc(Cl)cc(-c2ncc(N)c(F)n2)c1` (single isomer, unassigned) [Compound 278], for which the Emax in the assay with Nrf2 is 87%. On KEAP1 C151, the pIC50 is 8.21.

As for `C=CC(=O)N1CCOC[C@H]1c1cc(Cl)cc(-c2cnc(F)c(N)n2)c1` (single isomer, unassigned) [Compound 279], the Emax with Nrf2 stood at 92%. The pIC50 on KEAP1 C151 was 7.35.

For the compound `C=CC(=O)N1CCOC[C@H]1c1cc(Cl)cc(-c2nc(N)cnc2F)c1` (single isomer, unassigned) [Compound 280], the Emax with Nrf2 came out at 90%. Moreover, the pIC50 at KEAP1 C151 is 7.49.

For the compound `C=CC(=O)N1CCC(F)(F)CC1c1cc(Cl)cc(-c2ccnc(C)n2)c1` (single isomer, unassigned) [Compound 281, 1-(2-(3-chloro-5-(2-methylpyrimidin-4-yl)phenyl)-4,4-difluoropiperidin-1-yl)prop-2-en-1-on], the Emax in the assay on Nrf2 was determined as 84%. Moreover, the pIC50 on KEAP1 C151 was 7.21.

As for `C=CC(=O)N1CCOC[C@H]1c1cc(Cl)cc(-c2cc(N)nc(F)n2)c1` (single isomer, unassigned) [Compound 283], in the assay on Nrf2, the Emax is 94%. Also, the pIC50 on KEAP1 C151 is 7.74.

Take `C=CC(=O)N1CCC(F)(F)CC1c1cc(Cl)cc(-c2ccnc(N)n2)c1` (single isomer, unassigned) [Compound 284, 1-(2-(3-(2-aminopyrimidin-4-yl)-5-chlorophenyl)-4,4-difluoropiperidin-1-yl)prop-2-en-1-one]: the Emax in the assay on Nrf2 stood at 94%. Also, the pIC50 on KEAP1 C151 was 7.08.

Regarding `C=CC(=O)N1CCC(F)(F)CC1c1cc(Cl)cc(-c2cc(C)ncn2)c1` (single isomer, unassigned) [Compound 285, 1-(2-(3-chloro-5-(6-methylpyrimidin-4-yl)phenyl)-4,4-difluoropiperidin-1-yl)prop-2-en-1-one], the Emax with Nrf2 came to 83%. Also, the pIC50 on KEAP1 C151 is 7.66.

For the compound `C=CC(=O)N1CC(C)(C)OC[C@H]1c1cc(Cl)cc(-c2cnc(N)c(N)n2)c1` (single isomer, unassigned) [Compound 286], the Emax in the assay on Nrf2 was determined as 96%. In addition, the pIC50 at KEAP1 C151 was 7.49.

In the case of `C=CC(=O)N1CC(C)(C)OC[C@H]1c1cc(Cl)cc(-c2ncc(N)c(N)n2)c1` (single isomer, unassigned) [Compound 287], in the assay with Nrf2, the Emax worked out at 96%. Further, the pIC50 on KEAP1 C151 is 6.96.

Turning to `C=CC(=O)N1[C@H](c2cc(Cl)cc(-c3ccnc(N)n3)c2)COC[C@H]1C(F)F` (single isomer, unassigned) [Compound 290], in the assay on Nrf2, the Emax is 93%. In addition, at KEAP1 C151, the pIC50 was 7.82.

In the case of `C=CC(=O)N1[C@H](c2cc(Cl)cc(-c3ncc(N)cn3)c2)COC[C@H]1C(F)F` (single isomer, unassigned) [Compound 291], in the assay on Nrf2, the Emax came out at 93%. For the same compound, the pIC50 on KEAP1 C151 was above 8.19.

As to `C=C(Cl)C(=O)N1CCOC[C@H]1c1cc(Cl)cc(-c2ncnc(N)n2)c1` (single isomer, unassigned) [Compound 294], in the assay with Nrf2, the Emax amounted to 91%. For the same compound, the pIC50 on KEAP1 C151 was 5.86.

`C=C(C(=O)N1CCOC[C@H]1c1cc(Cl)cc(-c2ncnc(N)n2)c1)C(F)(F)F` (single isomer, unassigned) [Compound 295]: the Emax in the assay on Nrf2 amounted to 88%. Also, the pIC50 on KEAP1 C151 is 6.70.

With `C=CC(=O)N1CCOC[C@H]1c1cc(Cl)cc(-c2cc3[nH]ccc3cn2)c1` (single isomer, unassigned) [Compound 296], the Emax in the assay on Nrf2 is 96%. Also, the pIC50 on KEAP1 C151 was 7.44.

`C=CC(=O)N1CCOC[C@H]1c1cc(Cl)cc(-c2cc(C(N)=O)ccn2)c1` (single isomer, unassigned) [Compound 298]: the Emax in the assay with Nrf2 was found to be 94%. Also, the pIC50 at KEAP1 C151 was 7.49.

Regarding `C=CC(=O)N1CCOC[C@H]1c1cc(Cl)cc(-c2c[nH]c(N)n2)c1` [Compound 193, (R)-1-(3-(3-(2-amino-1H-imidazol-4-yl)-5-chlorophenyl)morpholino)prop-2-en-1-one], in the assay on Nrf2, the Emax came to 91%. In addition, the pIC50 at KEAP1 C151 was 7.01.

Regarding `C=CC(=O)N1CCOC[C@H]1c1cc(Cl)cc(-n2cnc(N)n2)c1` [Compound 215, (R)-1-(3-(3-(3-amino-1H-1,2,4-triazol-1-yl)-5-chlorophenyl)morpholino)prop-2-en-1-one], in the assay with Nrf2, the Emax was 65%. In addition, on KEAP1 C151, the pIC50 is 6.46.

Take `C=CC(=O)N1CCOC[C@H]1c1cc(Cl)cc(-c2ncc(N)c(N)n2)c1` [Compound 253, (R)-1-(3-(3-chloro-5-(4,5-diaminopyrimidin-2-yl)phenyl)morpholino)prop-2-en-1-one]: in the assay on Nrf2, the Emax turned out to be 93%. The pIC50 on KEAP1 C151 was 7.30.

`C=CC(=O)N1CCOC[C@H]1c1cc(Cl)cc(-c2ncc(OC)c(N)n2)c1` [Compound 261, (R)-1-(3-(3-(4-amino-5-methoxypyrimidin-2-yl)-5-chlorophenyl)morpholino)prop-2-en-1-one]: the Emax in the assay with Nrf2 worked out at 95%. At KEAP1 C151, the pIC50 is 7.72.

On to `C=CC(=O)N1CCOC[C@H]1c1cc(Cl)cc(-c2cnc(N)c(F)n2)c1` [Compound 289, (R)-1-(3-(3-(5-amino-6-fluoropyrazin-2-yl)-5-chlorophenyl)morpholino)prop-2-en-1-one], for which, in the assay on Nrf2, the Emax was determined as 95%. Also, on KEAP1 C151, the pIC50 was above 8.19.

The values are drawn from patent US20260207621A1 (Vividion Therapeutics, Inc., priority 2022, published 2026).
